This passage reports fold change (FC) and inhibition results from ChEMBL document CHEMBL5653631, “A Potent and Selective ULK1 Inhibitor Suppresses Autophagy and Sensitizes Cancer Cells to Nutrient Stress” (iScience, 2018).

For experiment [1], the target named is T1, Serine/threonine-protein kinase STK11 (Homo sapiens) (UniProt Q15831).
T1 sequence (whole entry): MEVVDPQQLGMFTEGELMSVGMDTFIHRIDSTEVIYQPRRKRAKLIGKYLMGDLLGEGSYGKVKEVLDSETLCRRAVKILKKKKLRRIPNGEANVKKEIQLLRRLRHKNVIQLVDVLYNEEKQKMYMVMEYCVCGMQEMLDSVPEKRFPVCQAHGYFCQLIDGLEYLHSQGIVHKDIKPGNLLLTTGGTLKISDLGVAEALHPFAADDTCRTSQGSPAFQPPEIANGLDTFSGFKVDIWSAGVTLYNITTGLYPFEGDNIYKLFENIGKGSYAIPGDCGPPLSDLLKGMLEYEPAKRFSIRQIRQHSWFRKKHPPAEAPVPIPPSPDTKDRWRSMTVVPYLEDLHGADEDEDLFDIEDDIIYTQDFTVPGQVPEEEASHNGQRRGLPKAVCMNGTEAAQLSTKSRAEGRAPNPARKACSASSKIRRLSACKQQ
As to the kind of experiment: Inhibition of human recombinant LKB1 at 40 nM related to control ULK1.

Experiment [2] deals with Protein-tyrosine kinase 2-beta (Homo sapiens) (UniProt Q14289). In words: Inhibition of human recombinant PYK2 at 40 nM related to control ULK1.
Chain of Protein-tyrosine kinase 2-beta (Homo sapiens) (Q14289 whole entry, looked up): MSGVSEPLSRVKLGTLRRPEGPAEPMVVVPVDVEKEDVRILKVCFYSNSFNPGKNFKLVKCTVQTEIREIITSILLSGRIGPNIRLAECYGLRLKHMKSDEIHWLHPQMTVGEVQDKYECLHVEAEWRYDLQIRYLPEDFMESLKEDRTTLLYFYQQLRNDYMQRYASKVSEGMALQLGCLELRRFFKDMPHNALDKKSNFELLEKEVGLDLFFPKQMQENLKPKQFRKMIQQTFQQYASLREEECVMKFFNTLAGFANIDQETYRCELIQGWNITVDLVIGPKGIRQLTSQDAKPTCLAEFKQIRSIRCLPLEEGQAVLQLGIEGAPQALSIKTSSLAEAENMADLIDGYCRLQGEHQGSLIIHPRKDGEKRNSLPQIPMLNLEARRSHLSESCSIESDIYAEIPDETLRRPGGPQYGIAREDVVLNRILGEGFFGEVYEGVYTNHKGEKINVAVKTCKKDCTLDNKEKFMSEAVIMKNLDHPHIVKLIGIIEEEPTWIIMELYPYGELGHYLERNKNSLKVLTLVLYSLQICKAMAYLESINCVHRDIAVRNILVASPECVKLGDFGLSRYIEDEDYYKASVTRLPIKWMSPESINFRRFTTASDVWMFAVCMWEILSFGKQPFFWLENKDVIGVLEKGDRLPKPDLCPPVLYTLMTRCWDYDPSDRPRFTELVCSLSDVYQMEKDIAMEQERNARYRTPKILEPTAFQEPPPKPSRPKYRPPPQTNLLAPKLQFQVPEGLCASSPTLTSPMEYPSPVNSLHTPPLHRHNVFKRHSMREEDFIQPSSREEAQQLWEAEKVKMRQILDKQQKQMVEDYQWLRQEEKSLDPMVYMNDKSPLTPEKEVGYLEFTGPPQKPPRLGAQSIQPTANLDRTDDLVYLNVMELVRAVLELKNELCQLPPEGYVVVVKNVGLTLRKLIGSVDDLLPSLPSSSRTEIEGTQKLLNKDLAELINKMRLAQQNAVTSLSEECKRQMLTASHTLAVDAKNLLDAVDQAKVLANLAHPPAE
For experiment [3], the target named is Ribosomal protein S6 kinase alpha-4 (Homo sapiens) (UniProt O75676). In words: Inhibition of human recombinant MSK2 at 40 nM related to control ULK1.
Chain of Ribosomal protein S6 kinase alpha-4 (Homo sapiens) (O75676 whole entry, looked up): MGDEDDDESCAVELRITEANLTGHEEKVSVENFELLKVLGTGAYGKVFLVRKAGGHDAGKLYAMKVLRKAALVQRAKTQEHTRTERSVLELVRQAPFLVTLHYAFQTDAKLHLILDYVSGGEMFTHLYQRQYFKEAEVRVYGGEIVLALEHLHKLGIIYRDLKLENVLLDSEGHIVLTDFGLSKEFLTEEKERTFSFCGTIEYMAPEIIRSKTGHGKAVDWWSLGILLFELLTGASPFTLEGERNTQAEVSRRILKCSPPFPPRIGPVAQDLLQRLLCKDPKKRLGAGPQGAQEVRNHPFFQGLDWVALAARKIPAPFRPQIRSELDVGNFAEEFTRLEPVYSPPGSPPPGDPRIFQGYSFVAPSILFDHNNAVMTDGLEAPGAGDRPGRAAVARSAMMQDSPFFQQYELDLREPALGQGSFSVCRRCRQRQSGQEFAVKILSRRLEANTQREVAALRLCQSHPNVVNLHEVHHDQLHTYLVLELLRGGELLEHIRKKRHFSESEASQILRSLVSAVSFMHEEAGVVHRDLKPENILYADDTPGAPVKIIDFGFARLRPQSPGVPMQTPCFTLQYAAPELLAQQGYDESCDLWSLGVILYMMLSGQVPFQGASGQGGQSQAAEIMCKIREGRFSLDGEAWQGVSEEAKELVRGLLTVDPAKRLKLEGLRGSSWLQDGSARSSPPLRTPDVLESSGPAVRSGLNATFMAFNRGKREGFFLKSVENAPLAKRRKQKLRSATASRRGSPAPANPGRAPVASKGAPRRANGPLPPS
For experiment [4], the target named is T2, Protein kinase C zeta type (Homo sapiens) (UniProt Q05513).
T2 sequence (whole entry): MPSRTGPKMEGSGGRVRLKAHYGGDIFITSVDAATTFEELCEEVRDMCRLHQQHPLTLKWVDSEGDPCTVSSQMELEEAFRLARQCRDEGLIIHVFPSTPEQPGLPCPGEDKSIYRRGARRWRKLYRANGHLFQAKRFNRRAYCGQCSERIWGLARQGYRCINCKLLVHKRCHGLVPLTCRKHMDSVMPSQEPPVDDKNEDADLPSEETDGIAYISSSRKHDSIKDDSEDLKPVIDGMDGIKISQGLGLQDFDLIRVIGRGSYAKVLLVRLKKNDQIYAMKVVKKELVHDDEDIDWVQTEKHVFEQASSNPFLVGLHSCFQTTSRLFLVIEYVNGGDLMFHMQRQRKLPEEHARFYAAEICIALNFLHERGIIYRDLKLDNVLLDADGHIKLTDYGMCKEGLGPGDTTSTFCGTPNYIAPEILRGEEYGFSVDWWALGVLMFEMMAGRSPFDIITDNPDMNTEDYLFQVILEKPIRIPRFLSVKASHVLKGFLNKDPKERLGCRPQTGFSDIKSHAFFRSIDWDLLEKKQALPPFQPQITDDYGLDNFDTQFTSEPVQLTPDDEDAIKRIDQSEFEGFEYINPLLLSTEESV
In words: Inhibition of human recombinant PKCz at 40 nM related to control ULK1.

The target in experiment [5] is Insulin-like growth factor 1 receptor (Homo sapiens) (UniProt P08069). In words: Inhibition of human recombinant IGF1R at 500 nM in presence of ATP by radiometric assay relative to control.
Chain of Insulin-like growth factor 1 receptor (Homo sapiens) (P08069 31-736 limits assumed): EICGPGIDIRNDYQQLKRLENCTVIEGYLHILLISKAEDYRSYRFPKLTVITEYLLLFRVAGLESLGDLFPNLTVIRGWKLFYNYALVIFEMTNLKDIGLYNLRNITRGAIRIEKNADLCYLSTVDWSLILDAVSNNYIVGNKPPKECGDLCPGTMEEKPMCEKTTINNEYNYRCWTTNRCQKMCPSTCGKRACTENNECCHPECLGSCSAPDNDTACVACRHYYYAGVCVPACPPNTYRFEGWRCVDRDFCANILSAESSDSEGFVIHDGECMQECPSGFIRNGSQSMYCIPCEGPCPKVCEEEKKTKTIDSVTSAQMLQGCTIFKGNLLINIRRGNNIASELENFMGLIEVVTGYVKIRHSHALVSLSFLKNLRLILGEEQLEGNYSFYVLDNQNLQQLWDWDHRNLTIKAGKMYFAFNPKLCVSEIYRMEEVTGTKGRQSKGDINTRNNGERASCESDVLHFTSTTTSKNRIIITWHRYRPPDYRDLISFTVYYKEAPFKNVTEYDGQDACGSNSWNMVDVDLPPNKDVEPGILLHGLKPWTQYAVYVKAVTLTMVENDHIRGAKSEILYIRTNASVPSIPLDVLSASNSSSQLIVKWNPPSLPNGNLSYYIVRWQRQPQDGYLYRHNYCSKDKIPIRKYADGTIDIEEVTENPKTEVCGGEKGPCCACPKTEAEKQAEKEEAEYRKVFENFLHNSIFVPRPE
Chain of Insulin-like growth factor 1 receptor (Homo sapiens) (P08069 741-1367 limits assumed): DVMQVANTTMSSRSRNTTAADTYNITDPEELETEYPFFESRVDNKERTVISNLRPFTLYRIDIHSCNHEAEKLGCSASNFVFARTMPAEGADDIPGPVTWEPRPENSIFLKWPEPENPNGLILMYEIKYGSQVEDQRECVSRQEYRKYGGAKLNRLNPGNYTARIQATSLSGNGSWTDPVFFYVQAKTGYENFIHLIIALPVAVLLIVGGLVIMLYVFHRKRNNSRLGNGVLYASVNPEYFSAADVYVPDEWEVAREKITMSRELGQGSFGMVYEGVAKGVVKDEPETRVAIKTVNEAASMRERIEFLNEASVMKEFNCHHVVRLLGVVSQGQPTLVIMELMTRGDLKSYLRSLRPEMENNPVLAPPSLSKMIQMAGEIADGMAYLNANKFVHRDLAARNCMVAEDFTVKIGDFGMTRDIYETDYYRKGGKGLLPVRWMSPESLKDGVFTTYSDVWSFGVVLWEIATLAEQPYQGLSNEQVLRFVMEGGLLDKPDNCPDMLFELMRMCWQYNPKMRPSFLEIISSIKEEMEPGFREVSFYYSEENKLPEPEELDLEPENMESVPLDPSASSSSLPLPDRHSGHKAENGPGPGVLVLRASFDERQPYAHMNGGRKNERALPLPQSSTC
The target of experiment [6] is T3, Serine/threonine-protein kinase Nek11 (Homo sapiens) (UniProt Q8NG66).
T3 sequence (whole entry): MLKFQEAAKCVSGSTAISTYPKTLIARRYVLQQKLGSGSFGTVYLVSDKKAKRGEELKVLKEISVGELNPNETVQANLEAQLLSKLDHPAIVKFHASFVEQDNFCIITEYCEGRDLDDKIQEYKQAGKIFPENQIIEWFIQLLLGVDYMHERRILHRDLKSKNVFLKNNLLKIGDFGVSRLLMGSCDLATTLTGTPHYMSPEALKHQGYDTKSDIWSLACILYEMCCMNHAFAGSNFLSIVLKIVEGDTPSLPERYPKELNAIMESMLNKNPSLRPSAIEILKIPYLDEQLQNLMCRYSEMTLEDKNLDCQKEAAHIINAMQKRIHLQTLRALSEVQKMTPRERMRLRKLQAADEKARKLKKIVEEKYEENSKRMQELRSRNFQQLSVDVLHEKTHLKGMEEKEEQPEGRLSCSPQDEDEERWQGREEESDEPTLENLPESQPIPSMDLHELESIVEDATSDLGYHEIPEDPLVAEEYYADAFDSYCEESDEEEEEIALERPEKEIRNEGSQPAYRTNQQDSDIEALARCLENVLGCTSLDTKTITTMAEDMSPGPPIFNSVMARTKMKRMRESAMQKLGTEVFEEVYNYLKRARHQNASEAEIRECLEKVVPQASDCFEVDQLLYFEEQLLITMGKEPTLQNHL
As to the kind of experiment: Inhibition of human recombinant NEK11 at 500 nM related to control ULK1.

The target of experiment [7] is Dual specificity mitogen-activated protein kinase kinase 2 (Homo sapiens) (UniProt P36507). As to the kind of experiment: Inhibition of human recombinant MAP2K2 at 500 nM in presence of ATP by radiometric assay relative to control.
Chain of Dual specificity mitogen-activated protein kinase kinase 2 (Homo sapiens) (P36507 whole entry): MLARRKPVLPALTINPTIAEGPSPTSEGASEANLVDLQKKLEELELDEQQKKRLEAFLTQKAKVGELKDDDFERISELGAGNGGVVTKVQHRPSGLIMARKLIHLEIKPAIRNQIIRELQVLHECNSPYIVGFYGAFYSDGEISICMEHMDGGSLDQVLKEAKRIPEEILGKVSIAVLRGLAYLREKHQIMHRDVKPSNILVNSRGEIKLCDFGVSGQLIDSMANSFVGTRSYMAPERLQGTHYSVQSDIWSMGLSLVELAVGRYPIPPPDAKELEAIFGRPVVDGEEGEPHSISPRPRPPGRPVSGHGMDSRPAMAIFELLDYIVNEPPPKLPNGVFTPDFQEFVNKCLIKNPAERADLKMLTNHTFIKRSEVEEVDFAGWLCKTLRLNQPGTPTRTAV
Experiment [8] addresses T4, Serine/threonine-protein kinase DCLK3 (Homo sapiens) (UniProt Q9C098).
T4 sequence (whole entry): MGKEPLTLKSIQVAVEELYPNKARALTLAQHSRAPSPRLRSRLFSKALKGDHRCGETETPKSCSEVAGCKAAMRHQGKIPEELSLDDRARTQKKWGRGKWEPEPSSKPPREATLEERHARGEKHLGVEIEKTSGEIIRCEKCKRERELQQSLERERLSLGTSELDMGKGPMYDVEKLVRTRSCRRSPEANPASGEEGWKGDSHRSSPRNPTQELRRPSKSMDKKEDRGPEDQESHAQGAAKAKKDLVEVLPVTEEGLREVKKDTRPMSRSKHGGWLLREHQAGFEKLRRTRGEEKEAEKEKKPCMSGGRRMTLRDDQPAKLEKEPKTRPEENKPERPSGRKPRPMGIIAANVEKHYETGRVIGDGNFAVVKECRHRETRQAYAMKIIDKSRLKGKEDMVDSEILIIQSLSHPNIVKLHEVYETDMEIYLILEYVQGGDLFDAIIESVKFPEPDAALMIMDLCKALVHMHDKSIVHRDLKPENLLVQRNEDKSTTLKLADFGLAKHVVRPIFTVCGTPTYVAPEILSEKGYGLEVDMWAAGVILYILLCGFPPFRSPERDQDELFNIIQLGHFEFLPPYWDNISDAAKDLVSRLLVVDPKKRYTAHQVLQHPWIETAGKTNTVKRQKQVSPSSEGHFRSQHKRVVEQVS
As to the kind of experiment: Inhibition of human recombinant DCAMKL3 at 15 nM in presence of ATP by radiometric assay relative to control.

Experiment [9] deals with Fibroblast growth factor receptor 2 (Homo sapiens) (UniProt P21802). As to the kind of experiment: Inhibition of human recombinant FGFR2 at 15 nM in presence of ATP by radiometric assay relative to control.
Chain of Fibroblast growth factor receptor 2 (Homo sapiens) (P21802 22-821 limits assumed): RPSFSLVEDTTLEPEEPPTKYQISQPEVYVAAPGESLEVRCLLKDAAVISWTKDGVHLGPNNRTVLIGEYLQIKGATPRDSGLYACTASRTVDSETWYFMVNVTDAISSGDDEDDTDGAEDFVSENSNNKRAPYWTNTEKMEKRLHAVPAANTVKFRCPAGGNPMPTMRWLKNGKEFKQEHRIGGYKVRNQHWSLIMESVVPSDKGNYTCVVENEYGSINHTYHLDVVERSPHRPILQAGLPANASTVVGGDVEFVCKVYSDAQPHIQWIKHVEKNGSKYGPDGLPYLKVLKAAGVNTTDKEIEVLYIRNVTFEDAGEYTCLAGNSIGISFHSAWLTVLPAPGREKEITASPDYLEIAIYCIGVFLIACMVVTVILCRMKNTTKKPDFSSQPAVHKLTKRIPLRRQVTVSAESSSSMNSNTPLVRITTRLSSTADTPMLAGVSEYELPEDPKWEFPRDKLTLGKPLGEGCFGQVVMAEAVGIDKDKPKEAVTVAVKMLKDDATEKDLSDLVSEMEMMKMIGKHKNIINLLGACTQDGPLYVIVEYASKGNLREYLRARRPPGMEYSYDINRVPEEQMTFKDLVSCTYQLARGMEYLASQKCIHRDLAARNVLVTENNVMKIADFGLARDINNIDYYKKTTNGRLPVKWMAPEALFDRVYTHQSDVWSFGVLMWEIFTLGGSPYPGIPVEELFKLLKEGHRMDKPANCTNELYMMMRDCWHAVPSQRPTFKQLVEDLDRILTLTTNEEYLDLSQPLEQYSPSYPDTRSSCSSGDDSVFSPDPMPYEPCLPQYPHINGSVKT
In experiment [10] the target is Casein kinase I isoform gamma-3 (Homo sapiens) (UniProt Q9Y6M4). As to the kind of experiment: Inhibition of human recombinant CK1g3 at 15 nM in presence of ATP by radiometric assay relative to control.
Chain of Casein kinase I isoform gamma-3 (Homo sapiens) (Q9Y6M4 whole entry, looked up, canonical isoform): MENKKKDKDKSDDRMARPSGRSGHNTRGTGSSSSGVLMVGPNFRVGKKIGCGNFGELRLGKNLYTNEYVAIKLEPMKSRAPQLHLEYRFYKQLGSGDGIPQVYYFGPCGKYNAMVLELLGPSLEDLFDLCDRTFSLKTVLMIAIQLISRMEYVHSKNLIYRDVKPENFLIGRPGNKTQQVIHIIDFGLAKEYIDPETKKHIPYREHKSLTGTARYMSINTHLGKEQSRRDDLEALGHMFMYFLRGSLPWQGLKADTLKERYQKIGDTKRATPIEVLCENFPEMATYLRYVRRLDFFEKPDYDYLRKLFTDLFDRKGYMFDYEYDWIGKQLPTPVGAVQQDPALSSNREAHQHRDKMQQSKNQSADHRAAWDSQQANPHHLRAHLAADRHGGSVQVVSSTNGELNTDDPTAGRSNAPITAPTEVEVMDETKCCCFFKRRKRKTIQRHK
Experiment [11] addresses Ribosomal protein S6 kinase alpha-4 (Homo sapiens) (UniProt O75676). As to the kind of experiment: Inhibition of human recombinant MSK2 at 15 nM in presence of ATP by radiometric assay relative to control.

For `O=C(N[C@@H](C1CC1)C(F)(F)F)c1cc(-c2cnn3cc(-c4ccc(F)cc4)cnc23)cs1`, the fold change (FC) in experiment [1] was found to be 0.18; in experiment [2] it was 0.04; in experiment [3] it was 0; in experiment [4], 0.

The inhibition is the drop in the measured response relative to a control, in per cent. As for `CNC(=O)c1ccccc1Oc1nc(Nc2cc(OC)c(OC)c(OC)c2)ncc1Br`, the inhibition in [5] worked out at 3%; in experiment [7], 0%. Also, the fold change (FC) in [6] came to 0.11.

Consider `CC(C)[C@H](NC(=O)c1cc(-c2cnn3cc(-c4ccc(OCCN5CCCCC5)cc4)cnc23)cs1)C(F)(F)F`, for which the inhibition was 35% in experiment [8], 0% in [9], 3% in [10] and 0% in experiment [11].
